Measured values taken from patent publication US9320753B2, “Organ arrest, protection and preservation” (priority 1999, dated 2016).

How the values were obtained:
[1] = tested on: isolated working rat heart; test: Lignocaine alone in the isolated working rat heart; settings: lignocaine alone at 0.5, 1.0 and 1.5 mM
Excerpt: Lignocaine is a local anaesthetic which blocks sodium fast channels and has antiarrhythmatic properties by reducing the magnitude of inward sodium current. The accompanying shortening of the action potential is thought to directly reduce calcium entry into the cell via Ca^2+ selective channels and Na^+/Ca^2+ exchange. Recent reports also implicate lignocaine with the scavenging of free radicals such as hydroxyl and singlet oxygen in the heart during reperfusion.

[2] = cited from earlier work
heart = test: Arrest with pinacidil plus local anaesthetics (Example 7); settings: arrest solutions with local anaesthetics
Method: Arrest solutions were made with pinacidil dissolved in 0.05% dimethysulfoxide (DMSO) (200 μM) the local anaesthetics prilocalne, procaine, mepivacaine and lignocaine in Krebs-Henseleit solution.

[3] = requires a carrier (DMSO); cited from earlier work

CCN(CC)CC(=O)Nc1c(C)cccc1C [lignocaine]
functional recoveries [1]: highly variable functional recoveries

Nc1ncnc2c1ncn2[C@@H]1O[C@H](CO)[C@@H](O)[C@H]1O [adenosine]
half life in the blood [2]: about 10 seconds

CC(N/C(=N\C#N)Nc1ccncc1)C(C)(C)C (stereo not shown) [pinacidil]
effectiveness compared with adenosine (heart): not as effective as adenosine | solubility in aqueous solutions [3]: low solubility in aqueous solutions
